Source: US20230158025A1 (UNIVERSITY OF UTAH RESEARCH FOUNDATION, priority 2020, published 2023)
Read-outs that look alike come from different tables or passages of the source.

Columns and labels:
recombinant human GALK1 = recombinant human GALK1 (Homo sapiens, UniProt P51570); assay: hGALK1 biochemical activity assay (Kinase-Glo Plus, ATP depletion)
How it was run: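 Turnover is measured as ATP depletion by Kinase-Glo Plus luminescence after a 1 h room-temperature reaction. Compounds span 11 concentrations, 57.4 μM–0.97 nM, in final 20 mM HEPES pH 8.0 with 5 mM MgCl2. The substrate solution held 35 μM ATP; the added solution held 5 nM human or mouse GALK1 and 100 μM galactose.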

recombinant mouse GALK1 = recombinant mouse GALK1 (Mus musculus, UniProt Q9R0N0); assay: mGALK1 biochemical activity assay (Kinase-Glo Plus, ATP depletion)
recombinant mouse GALK1, sequence (Q9R0N0 whole entry): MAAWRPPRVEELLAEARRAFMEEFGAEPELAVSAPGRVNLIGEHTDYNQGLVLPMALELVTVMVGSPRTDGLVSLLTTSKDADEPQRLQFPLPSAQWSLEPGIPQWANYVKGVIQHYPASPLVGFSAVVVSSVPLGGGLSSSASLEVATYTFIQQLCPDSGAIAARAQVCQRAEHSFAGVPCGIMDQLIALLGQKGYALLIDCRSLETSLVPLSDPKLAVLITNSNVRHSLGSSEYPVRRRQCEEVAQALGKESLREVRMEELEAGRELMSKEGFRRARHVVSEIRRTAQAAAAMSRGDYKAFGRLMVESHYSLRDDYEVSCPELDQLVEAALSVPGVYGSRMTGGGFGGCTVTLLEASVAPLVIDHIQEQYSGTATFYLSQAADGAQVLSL
How it was run: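 Recombinant GALK1 (5 nM) with 100 μM galactose; GALK1 turnover read as ATP depletion by Kinase-Glo Plus luminescence. Reaction ran 1 h at room temperature before detection reagent was added.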

PAMPA permeability = settings: PAMPA
[1] = rat microsomal stability (RLM); settings: microsomal stability half-life
[2] = aqueous kinetic solubility; settings: aqueous kinetic solubility
[3] = Tables 2-15, 35 μM ATP, 100 μM galactose, 1 h, bracketed figure after some values (e.g. −1.2) is undefined and not reported, read-out: hGALK IC50
[4] = recombinant human GALK1, Kinase-Glo Plus ATP depletion, read-out: hGALK
[5] = Tables 2-15, 35 μM ATP, 100 μM galactose, 1 h, bracketed figure after some values is undefined and not reported, read-out: mGALK IC50
[6] = recombinant mouse GALK1, Kinase-Glo Plus ATP depletion, read-out: mGALK
[7] = Tables 2-15, 35 μM ATP, 100 μM galactose, 1 h, bracketed figure after some values is undefined and not reported
[8] = recombinant mouse GALK1, Kinase-Glo Plus ATP depletion
[9] = Tables 2-15, 35 μM ATP, 100 μM galactose, 1 h, bracketed figure after some values (e.g. −1.2) is undefined and not reported
[10] = recombinant human GALK1, Kinase-Glo Plus ATP depletion

recombinant human GALK1, sequence (P51570 whole entry): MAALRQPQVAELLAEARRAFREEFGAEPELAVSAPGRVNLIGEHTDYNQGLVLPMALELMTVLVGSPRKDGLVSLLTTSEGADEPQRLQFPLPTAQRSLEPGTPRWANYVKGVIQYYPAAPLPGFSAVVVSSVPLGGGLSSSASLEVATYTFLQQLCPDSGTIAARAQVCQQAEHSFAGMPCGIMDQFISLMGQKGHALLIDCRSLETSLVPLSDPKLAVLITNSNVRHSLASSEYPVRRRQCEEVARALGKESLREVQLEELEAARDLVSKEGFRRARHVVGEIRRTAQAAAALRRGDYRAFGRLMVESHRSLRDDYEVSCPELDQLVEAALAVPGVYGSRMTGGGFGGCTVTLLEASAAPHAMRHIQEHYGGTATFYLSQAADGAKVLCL

| IC50 (recombinant human GALK1; [3]) | IC50 (recombinant human GALK1; [4]) | IC50 (recombinant mouse GALK1; [5]) | IC50 (recombinant mouse GALK1; [6]) | Perm. (1 × 10^−6 cm/sec) (PAMPA permeability) | Metab. Stabil. (m) [1] | Sol. [2] | mGALK IC50 (recombinant mouse GALK1; [7]) | mGALK (μM) (recombinant mouse GALK1; [8]) | hGALK IC50 (recombinant human GALK1; [9]) | hGALK (μM) (recombinant human GALK1; [10]) | Compound |
| --- | --- | --- | --- | --- | --- | --- | --- | --- | --- | --- | --- |
| 0.43 µM | 0.43 µM | 2.17 µM | 2.17 µM | 187.9 1 × 10^−6 cm/sec | 3.55 m | 1.53 µg/mL | – | – | – | – | CCn1nc(C)c(CNC(=O)C2=C(C)NC(Nc3nc4ccc(F)c(N)c4o3)=NC2c2ccc(C)cc2Cl)c1F (centres unmarked) [Compound 129, 2-((7-amino-6-fluorobenzo[d]oxazol-2-yl)amino)-4-(2-chloro-4-methylphenyl)-N-((1-ethyl-5-fluoro-3-methyl-1H-pyrazol-4-yl)methyl)-6-methyl-1,4-dihydropyrimidine-5-carboxamide] |
| – | 0.27 µM | – | 1.93 µM | 380.3 1 × 10^−6 cm/sec | 6.787 m | <1 µg/mL | – | – | – | – | CCn1cc(CNC(=O)C2=C(C)NC(Nc3nc4ccc(F)c(N)c4o3)=NC2c2ccc(Cl)cc2Cl)cn1 (centres unmarked) [Compound 130, 2-((7-amino-6-fluorobenzo[d]oxazol-2-yl)amino)-4-(2,4-dichlorophenyl)-N-((1-ethyl-1H-pyrazol-4-yl)methyl)-6-methyl-1,4-dihydropyrimidine-5-carboxamide] |
| 0.19 µM | 0.19 µM | 3.06 µM | 3.06 µM | 193.1 1 × 10^−6 cm/sec | 18.69 m | 1.56 µg/mL | – | – | – | – | CC1=C(C(=O)NCc2cnn(CC(F)(F)F)c2)C(c2ccc(C)cc2Cl)N=C(Nc2nc3ccc(F)c(N)c3o2)N1 (centres unmarked) [Compound 131, 2-((7-amino-6-fluorobenzo[d]oxazol-2-yl)amino)-4-(2-chloro-4-methylphenyl)-6-methyl-N-((1-(2,2,2-trifluoroethyl)-1H-pyrazol-4-yl)methyl)-1,4-dihydropyrimidine-5-carboxamide] |
| 0.77 µM | 0.77 µM | 4.32 µM | 4.32 µM | 553.2 1 × 10^−6 cm/sec | 14.41 m | <1 µg/mL | – | – | – | – | CC1=C(C(=O)NCc2cnn(C(C)(C)C)c2)C(c2ccc(C)cc2Cl)N=C(Nc2nc3ccc(F)c(N)c3o2)N1 (centres unmarked) [Compound 132, 2-((7-amino-6-fluorobenzo[d]oxazol-2-yl)amino)-N-((1-(tert-butyl)-1H-pyrazol-4-yl)methyl)-4-(2-chloro-4-methylphenyl)-6-methyl-1,4-dihydropyrimidine-5-carboxamide] |
| 0.11 µM | 0.11 µM | 1.09 µM | 1.09 µM | 427.4 1 × 10^−6 cm/sec | 7.036 m | <1 µg/mL | – | – | – | – | CCn1ncc(CNC(=O)C2=C(C)NC(Nc3nc4ccc(F)c(N)c4o3)=NC2c2ccc(C)cc2Cl)c1F (centres unmarked) [Compound 133, 2-((7-amino-6-fluorobenzo[d]oxazol-2-yl)amino)-4-(2-chloro-4-methylphenyl)-N-((1-ethyl-5-fluoro-1H-pyrazol-4-yl)methyl)-6-methyl-1,4-dihydropyrimidine-5-carboxamide] |
| – | 1.53 µM | – | 10.9 µM | 772.8 1 × 10^−6 cm/sec | 8.619 m | <1 µg/mL | – | – | – | – | CCn1cc(CNC(=O)C2=C(C)NC(Nc3nc4ccc(F)c(N)c4o3)=N[C@@H]2c2ccc(C)cc2Cl)cn1 [Compound 134, (S)-2-((7-amino-6-fluorobenzo[d]oxazol-2-yl)amino)-4-(2-chloro-4-methylphenyl)-N-((1-ethyl-1H-pyrazol-4-yl)methyl)-6-methyl-1,4-dihydropyrimidine-5-carboxamide] |
| – | 0.19 µM | – | 2.17 µM | 133.5 1 × 10^−6 cm/sec | 17.72 m | 23.87 µg/mL | – | – | – | – | CCn1cc(CNC(=O)C2=C(C)NC(Nc3nc4ccc(F)c(N)c4o3)=NC2c2ccccc2Cl)cn1 (centres unmarked) [Compound 136, 2-((7-amino-6-fluorobenzo[d]oxazol-2-yl)amino)-4-(2-chlorophenyl)-N-((1-ethyl-1H-pyrazol-4-yl)methyl)-6-methyl-1,4-dihydropyrimidine-5-carboxamide] |
| 4.32 µM | – | – | – | 56.0 1 × 10^−6 cm/sec | 28.74 m | <1 µg/mL | inactive | in- active | – | – | CC1=C(C(=O)Nc2ccccc2Cl)C(c2ccccc2Cl)N=C(Nc2nc3ccccc3o2)N1 (centres unmarked) [Compound 140, 2-(benzo[d]oxazol-2-ylamino)-N,4-bis(2-chlorophenyl)-6-methyl-1,4-dihydropyrimidine-5-carboxamide] |
| – | – | 7.69 µM | 7.69 µM | 2.0 1 × 10^−6 cm/sec | >30 m | <1 µg/mL | – | – | inactive | in- active | CC1=C(C(=O)Nc2ccc(Cl)cc2)C(c2ccccc2Cl)N=C(Nc2nc3ccccc3o2)N1 (centres unmarked) [Compound 141, 2-(benzo[d]oxazol-2-ylamino)-4-(2-chlorophenyl)-N-(4-chlorophenyl)-6-methyl-1,4-dihydropyrimidine-5-carboxamide] |
| – | 24.3 µM | – | 24.3 µM | 1046.7 1 × 10^−6 cm/sec | 2.1 m | 15.3 µg/mL | – | – | – | – | CC1=C(C(=O)N2CCOCC2)C(c2ccccc2Cl)N=C(Nc2nc3ccccc3o2)N1 (centres unmarked) [Compound 145, (2-(benzo[d]oxazol-2-ylamino)-4-(2-chlorophenyl)-6-methyl-1,4-dihydropyrimidin-5-yl)(morpholino)methanone] |
| – | – | – | – | <1.8 1 × 10^−6 cm/sec | >30 m | <1 µg/mL | inactive | in- active | inactive | in- active | CC1=C(C(=O)Nc2cccc(Br)c2)C(c2ccccc2Cl)N=C(Nc2nc3ccccc3o2)N1 (centres unmarked) [Compound 147, 2-(benzo[d]oxazol-2-ylamino)-N-(3-bromophenyl)-4-(2-chlorophenyl)-6-methyl-1,4-dihydropyrimidine-5-carboxamide] |
| 7.69 µM | – | 12.2 µM | 12.2 µM | 29.4 1 × 10^−6 cm/sec | >30 m | <1 µg/mL | – | – | – | – | CC1=C(C(=O)Nc2ccc(F)cc2)C(c2ccccc2Cl)N=C(Nc2nc3ccccc3o2)N1 (centres unmarked) [Compound 148, 2-(benzo[d]oxazol-2-ylamino)-N-(4-fluorophenyl)-4-(2-chlorophenyl)-6-methyl-1,4-dihydropyrimidine-5-carboxamide] |
| – | 6.85 µM | 12.2 µM | 12.2 µM | 513.0 1 × 10^−6 cm/sec | 20 m | <1 µg/mL | – | – | – | – | CC1=C(C(=O)Nc2cccnc2)C(c2ccccc2Cl)N=C(Nc2nc3ccccc3o2)N1 (centres unmarked) [Compound 149, 2-(benzo[d]oxazol-2-ylamino)-N-(pyridin-3-yl)-4-(2-chlorophenyl)-6-methyl-1,4-dihydropyrimidine-5-carboxamide] |

| Compound | IC50 (recombinant human GALK1; [3]) | IC50 (recombinant human GALK1; [4]) | IC50 (recombinant mouse GALK1; [5]) | IC50 (recombinant mouse GALK1; [6]) | Perm. (1 × 10^−6 cm/sec) (PAMPA permeability) | Metab. Stabil. (m) [1] | Sol. [2] | mGALK IC50 (recombinant mouse GALK1; [7]) | mGALK (μM) (recombinant mouse GALK1; [8]) | hGALK IC50 (recombinant human GALK1; [9]) | hGALK (μM) (recombinant human GALK1; [10]) |
| --- | --- | --- | --- | --- | --- | --- | --- | --- | --- | --- | --- |
| CC1=C(C(=O)Nc2cccc(CO)c2)C(c2ccccc2Cl)N=C(Nc2nc3ccccc3o2)N1 (centres unmarked) [Compound 144, 2-(benzo[d]oxazol-2-ylamino)-4-(2-chlorophenyl)-N-(3-(hydroxymethyl)phenyl)-6-methyl-1,4-dihydropyrimidine-5-carboxamide] | – | 3.85 µM | 9.68 µM | 9.68 µM | 1124.1 1 × 10^−6 cm/sec | >30 m | <1 µg/mL | – | – | – | – |
